# Assay results as given in patent US8217035B2, “Pyrimidine derivatives used as PI-3-kinase inhibitors” (Novartis AG, priority 2006, dated 2012).
# What was measured:
# [1] = system: A2780 ovarian cancer cells; assay: Cellular proliferation in A2780 cells, Cell Titer Glo (Biological Method 4); assay type: cell-based; settings: Homo sapiens; ovarian cancer cell line A2780
# How it was run: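 A2780 cells seeded at 1,000/well in DMEM with 10% FBS, at least 2 h before compound, then exposed 72 h at 37 °C, 5% CO2. Viable cells measured by Cell Titer Glo luminescence; EC50 calculated from duplicate conditions.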
# [2] = system: pSer473 Akt in A2780 cells; assay: pSer473 Akt assay to monitor PI3K pathway in A2780 cells (Biological Method 2, MSD); assay type: cell-based; settings: Homo sapiens; inhibition of Akt phosphorylation, A2780 cells
# How it was run: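 A2780 ovarian cancer cells in DMEM/10% FBS were treated with compound for 1 h at 37 °C, then lysed. pSer473-Akt and total Akt were measured by MSD electrochemiluminescence immunoassay. The pSer473/total Akt ratio gave % inhibition versus DMSO, from which EC50 was derived.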
# PI3 kinase alpha = PI3 kinase alpha (Homo sapiens, UniProt P42336); assay: PI3K ATP depletion assay (Biological Method 1, Assay 3; KinaseGlo luminescence); assay type: biochemical; settings: ATP depletion assay; read-out: PI3 Kinase Alpha, IC50
# How it was run: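 Compound in DMSO was mixed with 10 nM PI3 kinase and 5 μg/mL phosphatidylinositol, and the reaction was started with 2 μM ATP. It ran to about 50% ATP depletion and was stopped with KinaseGlo.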
# Sequence of PI3 kinase alpha (P42336 whole entry): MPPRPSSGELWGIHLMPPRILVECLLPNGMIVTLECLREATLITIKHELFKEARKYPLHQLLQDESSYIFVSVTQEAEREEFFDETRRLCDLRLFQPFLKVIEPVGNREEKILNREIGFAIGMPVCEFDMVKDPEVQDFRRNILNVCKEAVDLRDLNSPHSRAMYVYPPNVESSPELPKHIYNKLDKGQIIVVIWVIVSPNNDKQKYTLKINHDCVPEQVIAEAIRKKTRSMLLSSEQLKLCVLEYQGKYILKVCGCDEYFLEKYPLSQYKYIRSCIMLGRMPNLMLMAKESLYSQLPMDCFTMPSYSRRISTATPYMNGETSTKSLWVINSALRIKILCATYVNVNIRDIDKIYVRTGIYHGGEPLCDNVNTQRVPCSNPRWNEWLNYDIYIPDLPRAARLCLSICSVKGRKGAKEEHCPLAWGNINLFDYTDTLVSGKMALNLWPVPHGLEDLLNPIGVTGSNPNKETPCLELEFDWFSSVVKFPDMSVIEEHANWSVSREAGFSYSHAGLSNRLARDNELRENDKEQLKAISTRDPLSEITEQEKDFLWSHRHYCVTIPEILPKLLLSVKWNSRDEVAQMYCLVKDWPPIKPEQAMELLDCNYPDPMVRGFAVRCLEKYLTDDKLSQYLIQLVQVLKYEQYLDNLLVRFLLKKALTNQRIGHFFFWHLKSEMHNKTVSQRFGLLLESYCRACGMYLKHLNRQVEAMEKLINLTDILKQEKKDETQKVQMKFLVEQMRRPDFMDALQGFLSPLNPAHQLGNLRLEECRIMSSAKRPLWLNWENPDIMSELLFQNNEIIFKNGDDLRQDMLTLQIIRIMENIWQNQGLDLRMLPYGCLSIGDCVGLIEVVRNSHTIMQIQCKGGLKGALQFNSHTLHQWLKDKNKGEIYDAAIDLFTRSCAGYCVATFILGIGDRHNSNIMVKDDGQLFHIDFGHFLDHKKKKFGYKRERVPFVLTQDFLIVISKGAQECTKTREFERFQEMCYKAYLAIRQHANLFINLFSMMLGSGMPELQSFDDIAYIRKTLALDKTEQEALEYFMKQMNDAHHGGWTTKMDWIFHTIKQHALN
# Sequence of PI3 kinase alpha (P27986 whole entry partner): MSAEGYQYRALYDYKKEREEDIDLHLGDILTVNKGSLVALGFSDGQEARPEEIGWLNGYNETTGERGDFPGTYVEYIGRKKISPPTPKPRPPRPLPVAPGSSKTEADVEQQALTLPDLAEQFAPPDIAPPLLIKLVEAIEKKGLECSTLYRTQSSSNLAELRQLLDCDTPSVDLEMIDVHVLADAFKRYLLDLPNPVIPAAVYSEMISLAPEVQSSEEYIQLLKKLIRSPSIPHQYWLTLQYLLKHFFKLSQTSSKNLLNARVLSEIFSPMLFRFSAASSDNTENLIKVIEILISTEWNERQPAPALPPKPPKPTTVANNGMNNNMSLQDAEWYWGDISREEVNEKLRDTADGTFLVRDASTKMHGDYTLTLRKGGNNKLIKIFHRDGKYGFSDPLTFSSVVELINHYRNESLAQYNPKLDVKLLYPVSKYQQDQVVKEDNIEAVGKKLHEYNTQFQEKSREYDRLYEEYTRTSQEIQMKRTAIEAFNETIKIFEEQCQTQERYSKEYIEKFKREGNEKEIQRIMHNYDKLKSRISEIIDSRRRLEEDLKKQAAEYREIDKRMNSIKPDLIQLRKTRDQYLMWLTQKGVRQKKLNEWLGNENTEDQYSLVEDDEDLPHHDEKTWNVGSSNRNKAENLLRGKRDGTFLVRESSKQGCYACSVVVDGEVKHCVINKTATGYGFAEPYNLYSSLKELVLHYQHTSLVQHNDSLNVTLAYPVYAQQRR
Structure (SMILES),EC50 [1],EC50 [2],IC50 (PI3 kinase alpha)
COC(=O)N1CCC[C@H](Oc2cc(-c3cnc(N)nc3N)nc(N3CCOCC3)n2)C1 [Compound 75],< 10000 nM,< 1000 nM,< 1000 nM
CS(=O)(=O)c1ccc(Nc2cc(-c3cnc(N)nc3C(F)(F)F)nc(N3CCOCC3)n2)cn1 [Compound 78],< 1000 nM,< 1000 nM,< 1000 nM
CC(C)N1CCC(Oc2cncc(-c3cc(-c4cnc(N)cc4C(F)(F)F)nc(N4CCOCC4)n3)c2)CC1 [Compound 79],< 10000 nM,< 1000 nM,< 1000 nM
COC(=O)N1CCC(Oc2cc(-c3cnc(N)nc3N)nc(N3CCOCC3)n2)CC1 [Compound 81],< 1000 nM,< 1000 nM,< 1000 nM
Nc1ccc(-c2cc(Nc3ccc4ncccc4c3)nc(N3CCOCC3)n2)cn1 [Compound 82],< 1000 nM,< 1000 nM,< 1000 nM
Nc1cc(C(F)(F)F)c(-c2cc(OC3CCN(C(=O)c4ccccc4)CC3)nc(N3CCOCC3)n2)cn1 [Compound 83],< 10000 nM,< 1000 nM,< 1000 nM
CC(C)N1CC[C@@H](Oc2ccc(Nc3cc(-c4cnc(N)cc4C(F)(F)F)nc(N4CCOCC4)n3)cn2)C1 [Compound 86],< 1000 nM,< 1000 nM,< 1000 nM
Nc1ncc(-c2cc(Nc3ccccc3F)nc(N3CCOCC3)n2)cn1 [Compound 87],< 10000 nM,< 1000 nM,< 1000 nM
Nc1cc(C(F)(F)F)c(-c2cc(-c3cncc(OC4CCNCC4)c3)nc(N3CCOCC3)n2)cn1 [Compound 88],< 10000 nM,< 1000 nM,< 1000 nM
CS(=O)(=O)c1cc(Nc2cc(-c3cnc(N)cc3C(F)(F)F)nc(N3CCOCC3)n2)ccn1 [Compound 90],< 1000 nM,< 1000 nM,< 1000 nM
CS(=O)(=O)c1cccc(-c2cc(-c3cnc(N)cc3C#N)nc(N3CCOCC3)n2)c1 [Compound 92],< 1000 nM,< 1000 nM,< 1000 nM
CC(C)N1CCC(Oc2ccc(Nc3cc(-c4cnc(N)cc4C(F)(F)F)nc(N4CCOCC4)n3)cn2)C1 (stereo not drawn) [Compound 93],< 1000 nM,< 1000 nM,< 1000 nM
N#Cc1cc(N)ncc1-c1cc(Nc2ccncc2C(F)(F)F)nc(N2CCOCC2)n1 [Compound 94],< 1000 nM,< 1000 nM,< 1000 nM
CS(=O)(=O)c1cccc(-c2cc(-c3cnc(N)cc3C(F)(F)F)nc(N3CCOCC3)n2)c1 [Compound 95],< 1000 nM,< 1000 nM,< 1000 nM
Nc1ncc(-c2cc(OC3CCN(C(=O)OC4CCCC4)CC3)nc(N3CCOCC3)n2)c(N)n1 [Compound 97],< 1000 nM,< 1000 nM,< 1000 nM
CCc1c(Nc2cnc3ccccc3c2)nc(N2CCOCC2)nc1-c1cnc(N)nc1 [Compound 98],< 1000 nM,< 1000 nM,< 1000 nM
CC(=O)N1CCC(Oc2cc(-c3cnc(N)nc3N)nc(N3CCOCC3)n2)CC1 [Compound 99],< 1000 nM,< 1000 nM,< 1000 nM
Nc1ncc(-c2cc(O[C@H]3CCOC3)nc(N3CCOCC3)n2)c(N)n1 [Compound 101],< 10000 nM,< 1000 nM,< 1000 nM
CCOc1cc(Nc2cc(-c3ccc(N)nc3)nc(N3CCOCC3)n2)ccn1 [Compound 102],< 1000 nM,< 1000 nM,< 1000 nM
Nc1ccc(-c2cc(-c3cccnc3NCCO)nc(N3CCOCC3)n2)cn1 [Compound 104],< 10000 nM,< 1000 nM,< 1000 nM
CS(=O)(=O)c1cccc(-c2cc(-c3cnc(N)[nH]c3=O)nc(N3CCOCC3)n2)c1 [Compound 105],< 1000 nM,< 1000 nM,< 1000 nM
CC(C)C(=O)N1CCC(Oc2cc(-c3cnc(N)nc3C(F)(F)F)nc(N3CCOCC3)n2)CC1 [Compound 106],< 1000 nM,< 1000 nM,< 1000 nM

Structure (SMILES),EC50 [1],EC50 [2],IC50 (PI3 kinase alpha)
Nc1ncc(-c2cc(O[C@@H]3CCOC3)nc(N3CCOCC3)n2)c(N)n1 [Compound 108],< 1000 nM,< 1000 nM,< 1000 nM
CS(=O)(=O)c1ccnc(Nc2cc(-c3cnc(N)cc3C(F)(F)F)nc(N3CCOCC3)n2)c1 [Compound 109],< 10000 nM,< 1000 nM,< 1000 nM
Cc1cc(Nc2cc(-c3cnc(N)cc3C(F)(F)F)nc(N3CCOCC3)n2)ccn1 [Compound 110],< 1000 nM,< 1000 nM,< 1000 nM
Nc1ncc(-c2cc(Nc3cccc(F)c3)nc(N3CCOCC3)n2)cn1 [Compound 111],< 10000 nM,< 1000 nM,< 1000 nM
CS(=O)(=O)c1ccc(Nc2cc(-c3ccc(N)nc3)nc(N3CCOCC3)n2)cc1 [Compound 112],< 10000 nM,< 1000 nM,< 1000 nM
Nc1cc(C(F)(F)F)c(-c2cc(N3CCOCC3Cc3ccccc3)nc(N3CCOCC3)n2)cn1 (stereo not drawn) [Compound 113],< 10000 nM,< 1000 nM,< 1000 nM
CC(C)OC(=O)N1CCC(Oc2cc(-c3cnc(N)nc3C(F)(F)F)nc(N3CCOCC3)n2)CC1 [Compound 115],< 10000 nM,< 1000 nM,< 1000 nM
CN1CCC(Oc2ccc(Nc3cc(-c4cnc(N)cc4C(F)(F)F)nc(N4CCOCC4)n3)cn2)CC1 [Compound 116],< 10000 nM,< 1000 nM,< 1000 nM
COC(=O)N1CCC(Oc2cc(-c3cnc(N)cc3C(F)(F)F)nc(N3CCOCC3)n2)CC1 [Compound 117],< 10000 nM,< 1000 nM,< 1000 nM
N#Cc1cc(N)ncc1-c1cc(OC2CCOCC2)nc(N2CCOCC2)n1 [Compound 118],< 1000 nM,< 1000 nM,< 1000 nM
CC(=O)N1CCC(Oc2cc(-c3cnc(N)nc3C(F)(F)F)nc(N3CCOCC3)n2)CC1 [Compound 119],< 1000 nM,< 1000 nM,< 1000 nM
CS(=O)(=O)N1CCC(Oc2cc(-c3cnc(N)nc3N)nc(N3CCOCC3)n2)CC1 [Compound 120],< 10000 nM,< 1000 nM,< 1000 nM
Nc1ncc(-c2cc(-c3cnc(N)nc3C(F)(F)F)nc(N3CCOCC3)n2)c(C(F)(F)F)n1 [Compound 121],< 1000 nM,< 1000 nM,< 1000 nM
Nc1ncc(-c2cc(OC3CCN(C(=O)c4ccccc4)CC3)nc(N3CCOCC3)n2)c(N)n1 [Compound 122],< 1000 nM,< 1000 nM,< 1000 nM
Nc1ncc(-c2cc(Nc3ccc(F)cc3)nc(N3CCOCC3)n2)cn1 [Compound 123],< 10000 nM,< 1000 nM,< 1000 nM
Nc1ncc(-c2cc(OC3CCN(C(=O)c4ccccc4)CC3)nc(N3CCOCC3)n2)c(C(F)(F)F)n1 [Compound 124],< 1000 nM,< 1000 nM,< 1000 nM
CS(=O)(=O)c1cccc(-c2cc(-c3cnc(N)nc3N)nc(N3CCOCC3)n2)c1 [Compound 125],< 1000 nM,< 1000 nM,< 1000 nM
CS(=O)(=O)N1CCC[C@@H](Oc2cc(-c3cnc(N)nc3N)nc(N3CCOCC3)n2)C1 [Compound 127],< 10000 nM,< 1000 nM,< 1000 nM
CS(=O)(=O)c1ccc(Nc2cc(-c3cnc(N)cc3C(F)(F)F)nc(N3CCOCC3)n2)cn1 [Compound 128],< 10000 nM,< 1000 nM,< 1000 nM
CC(C)N1CCC(Oc2cncc(-c3cc(-c4cnc(N)cc4C(F)(F)F)nc(N4CCOCC4)n3)c2)C1 (stereo not drawn) [Compound 129],< 10000 nM,< 1000 nM,< 1000 nM
Cc1cc(Nc2cc(-c3ccc(N)nc3)nc(N3CCOCC3)n2)ccn1 [Compound 130],< 1000 nM,< 1000 nM,< 1000 nM
